The values below come from patent publication US10202391B2, “Chemical compounds” (AstraZeneca AB, priority 2015, dated 2019).

One may read the IC50 as the concentration that gives 50% inhibition. Low values mean greater potency in that assay, high ones weaker potency in that assay.

This experiment relates to phospho-p90RSK in A375 cell line. Description: A375 Phospho-p90RSK Cellular Assay. In kind it is cell-based, human. As to conditions: Homo sapiens, A-375, 2 h, A375 cells, 2 hours incubation. An outline of the steps: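 A375 cells (2400/well, DMEM/10% FCS) seeded overnight, then dosed over a 12-point range from 30 μM down to 0.00003 μM (0.3% DMSO) for 2 h at 37 °C. Fixed cells were immunostained for phospho-p90RSK Thr359 with Hoechst nuclear counterstain and read by high-content imaging; IC50s fitted from dose-response.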

Compound `COC[C@H]1Cn2cc(-c3nc(Nc4ccnn4C)ncc3C)nc2C(=O)N1Cc1ccc(F)c(F)c1` [Example 18, (R)-7-(3,4-Difluorobenzyl)-6-(methoxymethyl)-2-(5-methyl-2-((1-methyl-1H-pyrazol-5-yl)amino)pyrimidin-4-yl)-6,7-dihydroimidazo[1,2-a]pyrazin-8(5H)-one] gave a half-inhibitory concentration (IC50) of 5.7 nM.
